Patent US10752615B2, “Spirocyclic containing compounds and pharmaceutical uses thereof” (GB005, Inc., priority 2016, dated 2020)

Key:
BTK = BTK (Homo sapiens (Human), UniProt Q06187); assay: Kinase inhibition assay (Nanosyn, microfluidic detection), BTK; type: biochemical; details: 1 mM ATP, 3 hours at 25° C.
Description: (§1) The in vitro kinase assays were performed at Nanosyn (Santa Clara, Calif.) utilizing microfluidic detection technology. The test compounds were serially pre-diluted in DMSO and added, by the acoustic dispensing (Labcyte® 550), directly to 384 well assay plates into 10 uL of a buffer with enzyme (ITK, TXK, BTK or TEC) comprising: 100 mM HEPES, pH7.5, 5 mM MgCl2, 0.1% bovine serum albumin, 1 mM DTT, 0.01% Triton X-100 and the enzyme. Final DMSO concentration was maintained at 1% in all samples, including the controls. The reactions were initiated by addition of ATP (1 mM final concentration) and the fluorescently labeled peptide substrate to a final concentration of 1 uM, and incubated for 3 hours at 25° C. Following incubation, the reactions were quenched by addition of 40 μL of termination buffer (100 mM HEPES, pH7.5, 0.01% Triton X-100, 50 mM EDTA). Terminated plates were analyzed using Caliper LabChip® 3000 microfluidic electrophoresis instrument (Caliper Life Sciences/Perkin Elmer). The enzymatic modification of the peptide substrate (phosphorylation) results in a change of net charge enabling electrophoretic separation of product from substrate. As substrate and product are separated by electrophoresis, two peaks of fluorescence are observed. Change in the relative fluorescence intensity of the substrate and product peaks was the parameter measured, reflecting enzyme activity. In the presence of inhibitor, the ratio between product and substrate is altered: signal of the product decreases, while the signal of the substrate increases. Activity in each test sample was determined as the product to sum ratio (PSR): P/(S+P), where P is the peak height of the product and S is the peak height of the […]. For each compound, enzyme activity was measured at 12 concentrations spaced by 3× dilution intervals. Negative control samples (0%-inhibition in the absence of inhibitor, DMSO only) and positive control samples (100%-inhibition, in the absence of enzyme or in the presence of control inhibitor) were assembled in replicates of four and were used to calculate %-inhibition values in the presence of compounds. Percent inhibition (Pinh) was determined using the following equation: Pinh=(PSR0%−PSRinh)/(PSR0%−PSR100%)*100, where PSRinh is the product sum ratio in the presence of inhibitor, PSR0% is the product sum ratio in the absence of inhibitor and PSR100% is the product sum ratio in 100%-inhibition control samples. To determine IC50 values, the inhibition curves (Pinh versus inhibitor concentration) were fitted by 4 parameter sigmoid dose-response model using XLfit software (IDBS).

TXK = TXK (Homo sapiens (Human), UniProt P42681); assay: Kinase inhibition assay (Nanosyn, microfluidic detection), TXK; type: biochemical; details: 1 mM ATP, 3 hours at 25° C.
Description: as §1, with “The enzymatic modification of the peptide substrate (phosphorylation) results in a change of net charge enabling electrophoretic separation of product from substrate.” left out

TXK, sequence (P42681 whole entry): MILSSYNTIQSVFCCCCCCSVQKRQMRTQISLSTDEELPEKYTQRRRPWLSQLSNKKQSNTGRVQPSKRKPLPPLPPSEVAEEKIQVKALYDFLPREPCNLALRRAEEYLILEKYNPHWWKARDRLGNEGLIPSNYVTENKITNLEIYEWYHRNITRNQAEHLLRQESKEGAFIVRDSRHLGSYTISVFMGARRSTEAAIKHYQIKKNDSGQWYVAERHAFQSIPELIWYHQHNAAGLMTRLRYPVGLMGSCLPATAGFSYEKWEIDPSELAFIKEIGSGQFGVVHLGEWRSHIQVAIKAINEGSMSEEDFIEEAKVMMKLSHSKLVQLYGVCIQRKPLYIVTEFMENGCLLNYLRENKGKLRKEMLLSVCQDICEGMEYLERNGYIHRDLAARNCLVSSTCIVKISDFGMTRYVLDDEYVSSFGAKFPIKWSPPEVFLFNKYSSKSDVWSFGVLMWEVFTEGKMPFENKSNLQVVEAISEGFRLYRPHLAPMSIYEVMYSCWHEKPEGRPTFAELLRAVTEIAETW
BTK, sequence (Q06187 whole entry): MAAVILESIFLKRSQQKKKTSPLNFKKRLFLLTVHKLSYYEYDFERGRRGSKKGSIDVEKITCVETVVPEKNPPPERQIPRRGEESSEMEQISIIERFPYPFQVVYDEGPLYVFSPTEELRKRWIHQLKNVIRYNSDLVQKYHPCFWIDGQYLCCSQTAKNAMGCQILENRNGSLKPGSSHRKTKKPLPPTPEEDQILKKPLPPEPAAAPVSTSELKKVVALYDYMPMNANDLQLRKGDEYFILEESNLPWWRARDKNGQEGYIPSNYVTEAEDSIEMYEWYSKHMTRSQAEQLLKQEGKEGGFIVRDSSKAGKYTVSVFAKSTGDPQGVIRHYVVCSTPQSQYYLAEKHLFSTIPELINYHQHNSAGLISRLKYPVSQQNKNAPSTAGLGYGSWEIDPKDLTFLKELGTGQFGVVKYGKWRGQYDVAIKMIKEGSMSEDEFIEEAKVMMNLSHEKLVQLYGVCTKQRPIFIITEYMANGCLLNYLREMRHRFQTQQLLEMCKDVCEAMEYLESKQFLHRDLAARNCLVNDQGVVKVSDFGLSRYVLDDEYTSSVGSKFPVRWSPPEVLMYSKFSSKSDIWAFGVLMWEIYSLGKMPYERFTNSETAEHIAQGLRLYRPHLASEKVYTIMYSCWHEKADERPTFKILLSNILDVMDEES

C=CC(=O)N1CC[C@]2(C1)C[C@H](n1c(NC(=O)c3ccc(-c4cncc(NC)c4)s3)nc3ccccc31)C2 [Compound 142]
IC50 (BTK): 0.62 nM
IC50 (TXK): 0.48 nM

C=CC(=O)N1CC[C@]2(C1)C[C@H](n1c(NC(=O)c3ccc(C)nc3)nc3cc(CN[C@@H](C)C(C)(C)C)ccc31)C2 [Compound 26]
IC50 (BTK): 2.84 nM
IC50 (TXK): 0.99 nM

C=CC(=O)N1CC[C@]2(C1)C[C@H](n1c(NC(=O)c3ccc(-c4cnco4)s3)nc3cc(Cl)ccc31)C2 [Compound 63]
IC50 (BTK): 1.29 nM
IC50 (TXK): 0.37 nM

C=CC(=O)N1CC[C@]2(C1)C[C@H](n1c(NC(=O)c3ccc(-c4cncc(NC)n4)s3)nc3ccccc31)C2 [Compound 140]
IC50 (BTK): 0.54 nM
IC50 (TXK): 0.2 nM

C=CC(=O)N1CC[C@]2(C1)C[C@H](n1c(NC(=O)c3ccc(C)nc3)nc3ccccc31)C2 [Compound 47]
IC50 (BTK): 11.3 nM
IC50 (TXK): 2.69 nM

C=CC(=O)N1CC[C@]2(C1)C[C@H](n1c(NC(=O)c3cc(C)cs3)nc3ccccc31)C2 [Compound 79]
IC50 (BTK): 251 nM
IC50 (TXK): 17 nM

C=CC(=O)N1CC[C@]2(C1)C[C@H](n1c(NC(=O)c3ccc(-c4ccc(N)nc4)s3)nc3ccccc31)C2 [Compound 31]
IC50 (BTK): 5.38 nM
IC50 (TXK): 1.03 nM

C=CC(=O)N1CC[C@]2(C1)C[C@H](n1c(NC(=O)c3ccc(-c4cnco4)s3)nc3c(F)cccc31)C2 [Compound 61]
IC50 (BTK): 6.77 nM
IC50 (TXK): 0.49 nM

C=CC(=O)N1CC[C@]2(C1)C[C@H](n1c(NC(=O)c3ccncc3)nc3cc(CN[C@@H](C)C(C)(C)C)ccc31)C2 [Compound 20]
IC50 (BTK): 4.52 nM
IC50 (TXK): 1.84 nM

C=CC(=O)N1CC[C@]2(C1)C[C@H](n1c(NC(=O)c3ccc(-c4cn[nH]c4)s3)nc3ccccc31)C2 [Compound 124]
IC50 (BTK): 1.43 nM
IC50 (TXK): 0.34 nM

C=CC(=O)N1CC[C@]2(C1)C[C@H](n1c(NC(=O)c3ccc(-c4ccnc(NC)n4)s3)nc3ccccc31)C2 [Compound 137]
IC50 (BTK): 0.98 nM
IC50 (TXK): 0.76 nM

C=CC(=O)N1CC[C@]2(C1)C[C@H](n1c(NC(=O)c3cccnc3)nc3cc(CN[C@@H](C)C(C)(C)C)ccc31)C2 [Compound 22]
IC50 (BTK): 4.79 nM
IC50 (TXK): 1.71 nM

C=CC(=O)N1CC[C@]2(C1)C[C@H](n1c(NC(=O)c3ccc(-c4ccc(=O)[nH]c4)s3)nc3ccccc31)C2 [Compound 99]
IC50 (BTK): 10.2 nM
IC50 (TXK): 1.01 nM

C=CC(=O)N1CC[C@]2(C1)C[C@H](n1c(NC(=O)c3ccc(C(=O)NCC)s3)nc3ccccc31)C2 [Compound 101]
IC50 (BTK): 9.24 nM
IC50 (TXK): 0.93 nM

C=CC(=O)N1CC[C@]2(C1)C[C@H](n1c(NC(=O)c3ccc(-c4cnco4)s3)nc3cc(N(C)C(=O)[C@H](C)N4CCOCC4)ccc31)C2 [Compound 59]
IC50 (BTK): 1.64 nM
IC50 (TXK): 0.44 nM

C=CC(=O)N1CC[C@]2(C1)C[C@@H](n1c(NC(=O)c3ccc(-c4cnco4)s3)nc3ccc(CO)cc31)C2 [Compound 78]
IC50 (BTK): 11.7 nM
IC50 (TXK): 2.34 nM

C=CC(=O)N1CC[C@]2(C1)C[C@H](n1c(NC(=O)c3ccc(-c4ccnc(CO)c4)s3)nc3ccccc31)C2 [Compound 146]
IC50 (BTK): 0.57 nM
IC50 (TXK): 0.22 nM

C=CC(=O)N1CC[C@]2(C1)C[C@@H](n1c(NC(=O)c3ccc(-c4cnco4)s3)nc3ccc(CN4CCCC4)cc31)C2 [Compound 86]
IC50 (BTK): 8.41 nM
IC50 (TXK): 2.24 nM

C=CC(=O)N1CC[C@]2(C1)C[C@H](n1c(NC(=O)c3ccc(-c4ccc(=O)n(C)c4)s3)nc3ccccc31)C2 [Compound 108]
IC50 (BTK): 10.4 nM
IC50 (TXK): 1.02 nM

C=CC(=O)N1CC[C@]2(C1)C[C@H](n1c(NC(=O)c3ccc(-c4c[nH]nc4C)s3)nc3ccccc31)C2 [Compound 156]
IC50 (BTK): 0.7 nM
IC50 (TXK): 0.24 nM

C=CC(=O)N1CC[C@]2(C1)C[C@H](n1c(NC(=O)c3ccc(-c4cnco4)s3)nc3ccc(F)cc31)C2 [Compound 58]
IC50 (BTK): 1.32 nM
IC50 (TXK): 0.29 nM

C=CC(=O)N1CC[C@]2(C1)C[C@H](n1c(NC(=O)c3ccns3)nc3ccccc31)C2 [Compound 46]
IC50 (BTK): 1.44 nM
IC50 (TXK): 1.1 nM

C=CC(=O)N1CC[C@]2(C1)C[C@H](n1c(NC(=O)c3ccc(-c4cnco4)s3)nc3ccc(Cl)cc31)C2 [Compound 65]
IC50 (BTK): 1.99 nM
IC50 (TXK): 0.42 nM

C=CC(=O)N1CC[C@]2(C1)C[C@H](n1c(NC(=O)c3ccc(-c4cnco4)s3)nc3c(Cl)cccc31)C2 [Compound 64]
IC50 (BTK): 124 nM
IC50 (TXK): 39.7 nM

C=CC(=O)N1CC[C@]2(C1)C[C@H](n1c(NC(=O)c3ccc(-c4ccnn4C)s3)nc3ccccc31)C2 [Compound 75]
IC50 (BTK): 1.03 nM
IC50 (TXK): 0.12 nM

C=CC(=O)N1CC[C@]2(C1)C[C@H](n1c(NC(=O)c3ccc(-c4ccc(NC)nc4)s3)nc3ccccc31)C2 [Compound 117]
IC50 (BTK): 7.43 nM
IC50 (TXK): 4.9 nM

C=CC(=O)N1CC[C@]2(C1)C[C@H](n1c(NC(=O)c3ccc(-c4cncnc4C)s3)nc3ccccc31)C2 [Compound 134]
IC50 (BTK): 8.36 nM
IC50 (TXK): 1.01 nM

C=CC(=O)N1CC[C@]2(C1)C[C@H](n1c(NC(=O)c3ccc(C(F)F)s3)nc3cc(CN4CCCC4)ccc31)C2 [Compound 34]
IC50 (BTK): 1.39 nM
IC50 (TXK): 0.45 nM

C=CC(=O)N1CC[C@]2(C1)C[C@H](n1c(NC(=O)c3cnc(C)s3)nc3cc(CN[C@@H](C)C(C)(C)C)ccc31)C2 [Compound 8]
IC50 (BTK): 2.36 nM
IC50 (TXK): 0.67 nM

C=CC(=O)N1CC[C@]2(C1)C[C@H](n1c(NC(=O)c3ccc(-c4cnn(C)c4)s3)nc3ccccc31)C2 [Compound 113]
IC50 (BTK): 4.63 nM
IC50 (TXK): 1.32 nM

C=CC(=O)N1CC[C@]2(C1)C[C@@H](n1c(NC(=O)c3ccc(-c4cnco4)s3)nc3cccc(F)c31)C2 [Compound 62]
IC50 (BTK): 10.5 nM
IC50 (TXK): 1.58 nM

C=CC(=O)N1CC[C@]2(C1)C[C@H](n1c(NC(=O)c3ccc(-c4cnco4)s3)nc3cc(N(C)C(C)=O)ccc31)C2 [Compound 53]
IC50 (BTK): 0.64 nM
IC50 (TXK): 0.39 nM

C=CC(=O)N1CC[C@]2(C1)C[C@H](n1c(NC(=O)c3ccc(-c4ccccn4)s3)nc3ccccc31)C2 [Compound 74]
IC50 (BTK): 25.8 nM
IC50 (TXK): 1.62 nM

C=CC(=O)N1CC[C@]2(C1)C[C@H](n1c(NC(=O)c3cnc(C(C)C)s3)nc3cc(CN[C@@H](C)C(C)(C)C)ccc31)C2 [Compound 7]
IC50 (BTK): 2.2 nM
IC50 (TXK): 0.6 nM

C=CC(=O)N1CC[C@]2(C1)C[C@H](n1c(NC(=O)c3ccc(-c4ccccc4)s3)nc3ccccc31)C2 [Compound 103]
IC50 (BTK): 6.12 nM
IC50 (TXK): 0.93 nM

C=CC(=O)N1CC[C@]2(C1)C[C@H](n1c(NC(=O)c3ccc(-c4cc[nH]n4)s3)nc3ccccc31)C2 [Compound 116]
IC50 (BTK): 15.7 nM
IC50 (TXK): 3.08 nM

C=CC(=O)N1CC[C@]2(C1)C[C@H](n1c(NC(=O)c3ccc(-c4ccncc4)s3)nc3ccccc31)C2 [Compound 110]
IC50 (BTK): 1.11 nM
IC50 (TXK): 0.18 nM
